Columns and labels:
H3118 cells = assay: cAMP measurement, enzyme immunoassay; format: cell-based; conditions: compared to DMSO control
From the text: (§1) FIG. 5 illustrates inhibition of PDE4B increased cellular cAMP levels and inhibited PI3-kinase signaling. […] Columns: mean, bars: SD (n=3). B. Knock-down of PDE4B increased MEC cell cAMP level. n=3. **p<0.01, compared to control cells. Columns: mean, bars: SD (n=3). C. […] The same blot was stripped and probed with AKT or β-actin antibody. Image was cropped and auto-leveled by Photoshop. A representative of three independent experiments.
(§2) Cells were trypsinized and washed once with 1×PBS after treatment. The cell pellet was re-suspended in 100 μl of 0.1M HCL. cAMP amount was measure by Direct Cyclic AMP Enzyme Immunoassay Kit (#900-066, Assay Designs, Inc., Ann Arbor, Mich.) according to the manufacturer's protocol. The acetylated version of the kit was used.

HSY cells = assay: cAMP measurement, enzyme immunoassay; format: cell-based; conditions: inhibitors
From the text: as §1, §2

[1] = a few small 2003 studies; cited from earlier work
[2] = in vivo; cited from earlier work

Compound	increase of cAMP levels (H3118 cells)	effect on cAMP levels (in words) (HSY cells)	effective in treating renal colic [1]	adverse effects frequency [2]
C=C[C@@]1(C)CC(=O)[C@]2(O)[C@@]3(C)[C@@H](O)CCC(C)(C)[C@@H]3[C@H](O)[C@H](OC(C)=O)[C@@]2(C)O1 [forskolin]	4 fold	no effect		
CCOc1ccc(/C=C2\NCCc3cc(OCC)c(OCC)cc32)cc1OCC [Drotaverine]			~80%	0.9%
